# Results: patent publication US5182258A, “Systemic delivery of polypeptides through the eye” (Orbon Corporation, priority 1989, dated 1993)
# Legend:
# [1] = for effect of peptidase inhibitors on systemic absorption of TRH: 4 mM, Bestatin, 60 uM, D,L-Thiorphan, 0.6 uM, ocular TRH
# [2] = Absorption of insulin into systemic circulation via the eyes or i.v. (125I blood level); format: in vivo, rabbit; conditions: ocular insulin plus leucine-leucine
# [3] = Blood enkephalin-equivalent concentration after ocular or i.v. enkephalin
# [4] = Enkephalin-equivalent remaining in eye tissues at the end of 12 hr experiment
smiles,measurement,setting,value
"NC(=O)[C@@H]1CCCN1C(=O)[C@H](Cc1cnc[nH]1)NC(=O)[C@@H]1CCC(=O)N1 [TRH, Thyrotrophin-releasing hormone]",eye drop concentration giving a therapeutic blood concentration,"[1]; rabbit, in vivo",≥ 0.0025%
same,peak blood TRH concentration,"[1]; rabbit, in vivo",138 ng/mL
same,steady state blood TRH concentration after the peak,"[1]; rabbit, in vivo",60 ng/mL
same,time from the peak to steady state,"[1]; rabbit, in vivo",9 h
same,time to peak,"[1]; rabbit, in vivo",60 min
"CC(C)C[C@H](NC(=O)[C@@H](N)CC(C)C)C(=O)O [Leu-Leu, leucine-leucine]",effect of peptidase inhibitors on systemic absorption of TRH,[1]; Leu-Leu,did not significantly enhance the systemic absorption of TRH
same,effect of peptidase inhibitor on systemic absorption of LHRH,"[1]; Leu-Leu, 5 mM, ocular LHRH",did increase the systemic absorption of LHRH significantly
same,effect of peptidase inhibitor on systemic absorption of glucagon,"[1]; Leu-Leu, 5 mM, ocular glucagon",did not increase the systemic absorption of glucagon
same,effect of added peptidase inhibitor on insulin absorption,[2],did not significantly improve insulin absorption
"CC(C)C[C@H](NC(=O)[C@H](Cc1ccccc1)NC(=O)CNC(=O)CNC(=O)[C@@H](N)Cc1ccc(O)cc1)C(=O)O [enkephalin, Leucine-enkephalin (5-L-leucine)]",Tx of decline of blood concentration,[3]; 50 ug i.v.,less than 30 min
same,lowest point of blood concentration,"[3]; 50 ug i.v., in 5 hrs",22 ng/mL
same,plateau blood enkephalin concentration,[3]; 1% enkephalin instilled into eye,72 ng/mL
same,plateau blood enkephalin concentration,[3]; 5% enkephalin instilled into eye,233 ng/mL
same,actual concentration of enkephalin in the lens compared with other tissues,[4],lowest among all tissues
"O=C(O)CNC(=O)C(CS)Cc1ccccc1 (racemic) [D,L-Thiorphan, D,L-thiorphan]",effect of peptidase inhibitors on systemic absorption of TRH,[1]; Leu-Leu,did not significantly enhance the systemic absorption of TRH
"CC(C)C[C@H](NC(=O)CNC(=O)[C@H](Cc1ccc(O)cc1)NC(=O)[C@H](CO)NC(=O)[C@H](Cc1c[nH]c2ccccc12)NC(=O)[C@H](Cc1cnc[nH]1)NC(=O)[C@@H]1CCC(=O)N1)C(=O)N[C@@H](CCCNC(=N)N)C(=O)N1CCC[C@H]1C(=O)NCC(N)=O [LHRH, luteinizing hormone-releasing hormone]",eye drop concentration sufficient to reach therapeutic effective blood concentration,"[1]; rabbit, in vivo",0.005%
